Reference: US4103008A, “7[2(2,3 Dioxopiperazin-1-yl-carbonylamino)substituted 2 phenylacetamido]-3-2'-thiadiazolyl cephalosporanic acid derivatives” (priority 1976, dated 1978)
In brackets after ≈: the same amount, converted by molar mass. Like-named read-outs stand apart in the source and are kept apart here.

Legend:
[1] = test system: Bacillus substilis ATCC 6633; experiment: In vitro antibacterial activity (MIC); format: cell-based; details: ATCC6633; Bacillus substilis ATCC 6633; in vitro; sodium salts; read-out: MIC
[2] = test system: Pseudomonas aeruginosa C73-2; experiment: In vitro antibacterial activity (MIC); format: cell-based; details: C732
Escherichia coli C 73-4 = experiment: In vitro antibacterial activity (MIC); format: cell-based; details: C734; Escherichia coli C 73-4; in vitro; sodium salts; read-out: MIC
[3] = test system: Staphylococcus aureus FDA 209NIH, P-J C-1; experiment: In vitro antibacterial activity (MIC); format: cell-based; details: Staphylococcus aureus FDA 209NIH, P-J C-1; in vitro; sodium salts; read-out: MIC
[4] = test system: Pseudomonas strain C73-63; experiment: In vitro antibacterial activity (MIC); format: cell-based; details: C7363; Pseudomonas strain C73-63; in vitro; sodium salts; read-out: MIC
Serratia strain No. 2 = experiment: In vitro antibacterial activity (MIC); format: cell-based; details: Serratia strain No. 2; in vitro; sodium salts; read-out: MIC
Salmonella strain C73-1 = experiment: In vitro antibacterial activity (MIC); format: cell-based; details: C731; Salmonella strain C73-1; in vitro; sodium salts; read-out: MIC
Excerpt: (§1) Given below are the test results of in vitro antibacterial activity studies, serum concentrations and accumulative urinary excretions in rabbits and the protecting effects in mice, of some representative compounds of the invention.
(§2) The compounds used in the tests are shown in the following Table 1, but all of these compounds are in the form of the sodium salt.

[5] = test system: Salmonella strain C 73-30; experiment: In vitro antibacterial activity (MIC); format: cell-based; details: C7330; Salmonella strain C 73-30; in vitro; sodium salts; read-out: MIC
Excerpt: as §1, §2

[6] = test system: Pseudomonas strain C73-83; experiment: In vitro antibacterial activity (MIC); format: cell-based; details: C7383; Pseudomonas strain C73-83; in vitro; sodium salts; read-out: MIC
Excerpt: as §1, §2

[7] = test system: Vibrio parahaemolyticus K - 3; experiment: In vitro antibacterial activity (MIC); format: cell-based; details: K3
[8] = test system: Streptococcus faecalis ATCC 8043; experiment: In vitro antibacterial activity (MIC); format: cell-based; details: Enterococcus faecalis, ATCC8043; Streptococcus faecalis ATCC 8043; in vitro; sodium salts; read-out: MIC
[9] = test system: Salmonella enteritidis No. 11; experiment: In vitro antibacterial activity (MIC); format: cell-based; details: Salmonella enterica; Salmonella enteritidis No. 11; in vitro; sodium salts; read-out: MIC
[10] = test system: Shigella dysenteriae shigae; experiment: microbe, parasite or virus in culture; format: cell-based
[11] = test system: Pseudomonas aerugenosa E 2 strain; experiment: ED50 in Pseudomonas infection in mice; format: in vivo; details: ICR-JCL mouse, male, 20g; P. aerugenosa E 2 3.6 × 10^4 intraperitoneal; compound intramuscular after 2 hrs.; ED50 after 7 days; sodium salts
Excerpt: as §1, §2
Pseudomonas aerugenosa E 2 strain (3.6 × 10^4) was intraperitonealy injected to each group of 10 of ICR-JCL mouse (male, 20g). After 2 hrs., each of the test compounds was intramuscularly administered to the infected mice and the ED50 values were measured after 7 days.

Klebsilla pneumoniae = experiment: In vitro antibacterial activity (MIC); format: cell-based
Proteus morganii kono = experiment: In vitro antibacterial activity (MIC); format: cell-based; details: Morganella morganii; Proteus morganii kono; in vitro; sodium salts; read-out: MIC
[12] = Serum concentration and accumulative urinary excretion in rabbit; details: in vivo, im; for dose excreted at 6 h: 20 mg/kg; for concentration at 0.5 h: 20 mg/kg intramuscular, after 30 mins., sodium salts, Sarcina lutea assay
Description: as §1, §2
Each of the test compounds (20 mg/kg) was intramuscularly administered to one group of 3 rabbits, and the amounts of antibiotics were measured by a conventional method, using Sarcina lutea.

Proteus morganii C73-23 = experiment: In vitro antibacterial activity (MIC); format: cell-based; details: Morganella morganii, C7323; Proteus morganii C73-23; in vitro; sodium salts; read-out: MIC
[13] = test system: Enterobacter strain C73-17; experiment: In vitro antibacterial activity (MIC); format: cell-based; details: C7317
[14] = test system: Vibrio parahaemolyticus K - 5; experiment: In vitro antibacterial activity (MIC); format: cell-based; details: K5; Vibrio parahaemolyticus K - 5; in vitro; sodium salts; read-out: MIC
Serratia strain No. 1 = experiment: In vitro antibacterial activity (MIC); format: cell-based; details: Serratia strain No. 1; in vitro; sodium salts; read-out: MIC
Escherichia coli C 73-1 = experiment: In vitro antibacterial activity (MIC); format: cell-based; details: C731
[15] = Pseudomonas aeruginosa C73-2, in vitro, sodium salts, read-out: MIC
[16] = Vibrio parahaemolyticus K - 3, in vitro, sodium salts, read-out: MIC
[17] = Klebsilla pneumoniae, in vitro, sodium salts, read-out: MIC
[18] = Enterobacter strain C73-17, in vitro, sodium salts, read-out: MIC

SMILES | MIC [1] [µg/mL] | MIC [2, 15] [µg/mL] | MIC (Escherichia coli C 73-4) [µg/mL] | MIC [3] [µg/mL] | MIC [4] [µg/mL] | MIC (Serratia strain No. 2) [µg/mL] | MIC (Salmonella strain C73-1) [µg/mL] | MIC [5] [µg/mL] | MIC [6] [µg/mL] | MIC [7, 16] [µg/mL] | MIC [8] [µg/mL] | MIC [9] [µg/mL] | MIC [10] [µg/mL] | ED50 in Pseudomonas infection in mice [11] [mg/mouse] | MIC (Klebsilla pneumoniae; [17]) [µg/mL] | MIC (Proteus morganii kono) [µg/mL] | dose excreted at 6 h [12] [%] | MIC (Proteus morganii C73-23) [µg/mL] | MIC [14] [µg/mL] | MIC (Serratia strain No. 1) [µg/mL] | further results
CCOC(=O)Oc1ccc([C@@H](NC(=O)N2CCN(CC)C(=O)C2=O)C(=O)NC2C(=O)N3C(C(=O)O)=C(CSc4nncs4)CS[C@H]23)cc1 (single isomer, unassigned) [V, 7-[D(-)-α-(4-ethyl-2,3-dioxopiperazin-1-yl-carbonylamino)-p-ethoxycarbonyloxyphenylacetamido]-3-(1,3,4-thiadiazol-2-yl-thiomethyl)-3-cephem-4-carboxylic acid] | 0.78 | 6.25 | 3.13 | 0.39 | 6.25 | 3.13 | 1.56 | 1.56 | 25 | 6.25 | 12.5 | 0.2 | 0.78 (≈ 1.08 µM) | 1.0 | 0.39 | 3.13 | 24.1 | 12.5 | 6.25 | 3.13 | concentration at 0.5 h [12]: 43000 ng/mL; MIC [13, 18]: 3.13 µg/mL; MIC (Escherichia coli C 73-1; Escherichia coli C 73-1, in vitro, sodium salts, read-out: MIC): 1.56 µg/mL
Cc1nnc(SCC2=C(C(=O)O)N3C(=O)[C@@H](NC(=O)Cn4cnnn4)[C@H]3SC2)s1 [CEZ, sodium cefazolin, reference compound] | < 0.05 | > 100 | 0.78 | < 0.05 | > 100 | > 100 | 0.78 | 0.78 | > 100 | – | 2.5 | 0.78 | 0.78 | – | 0.78 | > 100 | – | > 100 | 12.5 | > 100 | MIC ([7]; Vibrio parahaemolyticus): 1.56 µg/mL; MIC [13, 18]: 25 µg/mL; MIC (Escherichia coli C 73-1; Escherichia coli): 3.13 µg/mL
CCOC(=O)Oc1ccc([C@@H](NC(=O)N2CCN(CC)C(=O)C2=O)C(=O)NC2C(=O)N3C(C(=O)O)=C(CSc4nncs4)CS[C@H]23)cc1Cl (single isomer, unassigned) [VI, 7-[D(-)-α-(4-ethyl-2,3-dioxopiperazin-1-yl-carbonylamino)-m-chloro-p-ethoxycarbonyloxyphenylacetamido]-3-(1,3,4-thiadiazol-2-yl-thiomethyl)-3-cephem-4-carboxylic acid] | 0.39 | 12.5 | 3.13 | 0.39 | 3.13 | 6.25 | 3.13 | 3.13 | 12.5 | 12.5 | 6.25 | 0.2 | 1.56 (≈ 2.07 µM) | 0.8 | – | 3.13 | 17.4 | 12.5 | 12.5 | 6.25 | MIC (Klebsilla pneumoniae): 1.56 µg/mL (≈ 2.07 µM); concentration at 0.5 h [12]: 19400 ng/mL; MIC ([13]; Enterobacter): 1.56 µg/mL (≈ 2.07 µM); MIC (Escherichia coli C 73-1; Escherichia coli): 1.56 µg/mL (≈ 2.07 µM)
CCN1CCN(C(=O)N[C@@H](C(=O)NC2C(=O)N3C(C(=O)O)=C(CSc4nnc(C)s4)CSC23)c2ccc(O)c(Cl)c2)C(=O)C1=O (single isomer, unassigned) [Example 7] | – | – | – | – | – | – | – | – | – | – | – | – | – | – | – | – | – | – | – | – | MIC ([2]; Pseudomonas aeruginosa C-73-2, read-out: Mic value against Pseudomonas aeruginosa C-73-2): 12.5 µg/mL (≈ 18 µM)
